Values quoted from earlier work as cited in paper PMC10615786 (Cell, 2023).

How the values were obtained:
LRX4 = conditions: modulates salt tolerance
LRX3 = conditions: modulates salt tolerance
ROS level = conditions: general statement, no data or reference printed

**Q.** With “sRALF23: stigma-expressing RALF peptide (ATRRYISYGALRRNTIPCSRRGASYYNCRRGAQANPYSRGCSAITRCRRS; UniProt Q9LUS7 89-138, looked up)” as the molecule, how does the “binding to LRX4” value (LRX4) read?
**A.** The value was “bind to LRX3 and LRX4”.

**Q.** What about the “binding to LRX3” value (LRX3) of the same molecule?
**A.** The value was “bind to LRX3 and LRX4”.

**Q.** For `c1ccc2c(c1)[I+]c1ccccc1-2` [DPI], which “ROS levels in vivo” value (ROS level) is on record?
**A.** Its value is “lower ROS levels in vivo”.
